From patent publication US11566007B2, “Ras inhibitors” (Revolution Medicines, Inc., priority 2019, dated 2023)
Where “and” joins values, the source holds several entries; their conditions need not be identical. Identical values can stand only once.

Assays:
KRAS G12V = KRAS G12V (Homo sapiens (Human), UniProt P01116+P62937, G12V); assay: Ras-Raf (BRAF RBD) disruption / FRET / MOA assay, KRAS G12V; format: biochemical; settings: read-out: IC50* KRAS G12V FRET data
Outline: (§1)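 A 10-point, 3-fold dilution series topping at 30 μM final was incubated 3 h at 25° C with the Ras/cyclophilin A/BRAF RBD mixture.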

[1] = system: NCI-H358 cells (K-Ras G12C); assay: Potency assay: pERK in NCI-H358 cells; format: cell-based, human; settings: Homo sapiens, NCI-H358; H358 KRAS G12C; read-out: pERK EC50
Outline: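 pERK decrease read by AlphaLISA SureFire p-ERK1/2 or In-Cell Western after 4 h compound exposure at 37 °C, 5% CO2.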

NRAS WT = NRAS WT (Homo sapiens (Human), UniProt P01111+P62937); assay: Ras-Raf (BRAF RBD) disruption / FRET / MOA assay, NRAS WT; format: biochemical; settings: read-out: IC50* NRAS WT FRET data
NRAS WT, sequence (P01111 whole entry): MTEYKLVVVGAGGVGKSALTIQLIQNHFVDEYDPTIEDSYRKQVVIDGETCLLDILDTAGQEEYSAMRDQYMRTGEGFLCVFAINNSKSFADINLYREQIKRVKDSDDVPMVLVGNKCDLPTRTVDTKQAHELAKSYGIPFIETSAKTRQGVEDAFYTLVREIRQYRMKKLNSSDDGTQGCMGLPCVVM
NRAS WT, sequence (P62937 whole entry): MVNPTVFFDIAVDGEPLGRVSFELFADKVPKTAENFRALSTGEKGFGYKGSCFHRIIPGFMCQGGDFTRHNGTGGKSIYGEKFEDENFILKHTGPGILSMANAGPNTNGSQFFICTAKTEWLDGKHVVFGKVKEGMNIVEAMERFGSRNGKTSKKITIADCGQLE
Outline: (§2)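 Compounds (30 μM top final, 10-point 3-fold dilutions) incubated 3 h at 25° C with nucleotide-loaded Ras, cyclophilin A and BRAF RBD. Detection with 10 nM anti-His Eu-W1024 and 50 nM anti-GST allophycocyanin over another 1.5 h. Lowered TR-FRET ratio relative to DMSO wells gives IC50.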

KRAS Q61H = KRAS Q61H (Homo sapiens (Human), UniProt P01116+P62937, Q61H); assay: Ras-Raf (BRAF RBD) disruption / FRET / MOA assay, KRAS Q61H; format: biochemical; settings: Ras-Raf disruption/FRET/MOA assay; class symbols; read-out: KRAS Q61H FRET data IC50
KRAS Q61H, sequence (P01116-2 other isoform, or with tags, fused parts or gaps Q61H): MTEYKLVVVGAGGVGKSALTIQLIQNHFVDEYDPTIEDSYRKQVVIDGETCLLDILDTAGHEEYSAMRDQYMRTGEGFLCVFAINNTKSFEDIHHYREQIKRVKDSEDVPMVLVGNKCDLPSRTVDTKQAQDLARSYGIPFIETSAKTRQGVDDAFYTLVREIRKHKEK
KRAS Q61H, sequence (P62937 whole entry): as the sequence (P62937 whole entry) above
Outline: as §2

NRAS G12C = NRAS G12C (Homo sapiens (Human), UniProt P01111+P62937, G12C); assay: Ras-Raf (BRAF RBD) disruption / FRET / MOA assay, NRAS G12C; format: biochemical; settings: read-out: IC50* NRAS G12C FRET data
NRAS G12C, sequence (P01111 whole entry G12C): as the sequence (P01111 whole entry) above, with G12C counted along it
NRAS G12C, sequence (P62937 whole entry): as the sequence (P62937 whole entry) above
Outline: as §1

K-Ras G13C = K-Ras G13C (Homo sapiens (Human), UniProt P01116+P62937, G13C); assay: Ras-Raf (BRAF RBD) disruption / FRET / MOA assay, KRAS G13C; format: biochemical; settings: KRAS G13C; Ras-Raf disruption/FRET/MOA assay; read-out: IC50* KRAS G13C FRET data
K-Ras G13C, sequence (P01116-2 other isoform, or with tags, fused parts or gaps G13C): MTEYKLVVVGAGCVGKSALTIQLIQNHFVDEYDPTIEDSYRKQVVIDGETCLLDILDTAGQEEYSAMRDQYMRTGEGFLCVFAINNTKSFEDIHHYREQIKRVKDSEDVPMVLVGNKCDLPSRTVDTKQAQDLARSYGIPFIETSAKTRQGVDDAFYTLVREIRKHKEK
K-Ras G13C, sequence (P62937 whole entry): as the sequence (P62937 whole entry) above
Outline: as §1

KRAS G13D = KRAS G13D (Homo sapiens (Human), UniProt P01116+P62937, G13D); assay: Ras-Raf (BRAF RBD) disruption / FRET / MOA assay, KRAS G13D; format: biochemical; settings: read-out: IC50* KRAS G13D FRET data
KRAS G13D, sequence (P01116-2 other isoform, or with tags, fused parts or gaps G13D): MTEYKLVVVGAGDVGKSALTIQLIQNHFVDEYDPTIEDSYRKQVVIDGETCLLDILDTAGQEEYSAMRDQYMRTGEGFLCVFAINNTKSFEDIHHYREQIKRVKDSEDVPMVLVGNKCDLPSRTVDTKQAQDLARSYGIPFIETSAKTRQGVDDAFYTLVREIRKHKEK
KRAS G13D, sequence (P62937 whole entry): as the sequence (P62937 whole entry) above
Outline: as §1

KRAS G12V, sequence (P01116-2 other isoform, or with tags, fused parts or gaps G12V): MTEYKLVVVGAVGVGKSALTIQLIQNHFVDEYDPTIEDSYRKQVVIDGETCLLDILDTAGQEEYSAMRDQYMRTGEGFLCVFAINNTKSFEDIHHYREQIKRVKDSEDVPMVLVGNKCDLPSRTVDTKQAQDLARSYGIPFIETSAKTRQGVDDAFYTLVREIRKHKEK
KRAS G12V, sequence (P62937 whole entry): as the sequence (P62937 whole entry) above

Compound	IC50 (KRAS G12V)	EC50 [1]	IC50 (NRAS WT)	IC50 (KRAS Q61H)	IC50 (NRAS G12C)	IC50 (K-Ras G13C)	IC50 (KRAS G13D)
C=CC(=O)N1CC2(C1)OCCCN2C(=O)N(C)[C@H](C(=O)N[C@H]1Cc2nc(cs2)-c2ccc3c(c2)c(c(-c2cccnc2[C@H](C)OC)n3CC)CC(C)(C)COC(=O)[C@@H]2CCCN(N2)C1=O)C(C)C (atropisomer, axis not shown) [Example A735, 2-acryloyl-N-((2S)-1-(((6^3S,4S,Z)-1^1-ethyl-1^2-(2-((S)-1-methoxyethyl)pyridin-3-yl)-10,10-dimethyl-5,7-dioxo-6^1,6^2,6^3,6^4,6^5,6^6-hexahydro-1^1H-8-oxa-2(4,2)-thiazola-1(5,3)-indola-6(1,3)-pyridazinacycloundecaphane-4-yl)amino)-3-methyl-1-oxobutan-2-yl)-N-methyl-5-oxa-2,9-diazaspiro[3.5]nonane-9-carboxamide]	> 10000 nM	< 5000 nM	1000 to 10000 nM	1000 to 10000 nM	< 10 nM	1000 to 10000 nM	> 10000 nM
C=CC(=O)N(C)[C@@H]1C[C@H]1N(C)C(=O)N(C)[C@H](C(=O)N[C@H]1Cc2nc(cs2)-c2ccc3c(c2)c(c(-c2cccnc2[C@H](C)OC)n3CC)CC(C)(C)COC(=O)[C@@H]2CCCN(N2)C1=O)C(C)C (atropisomer, axis not shown) [Example A739]	1000 to 10000 nM	< 5000 nM	100 to 1000 nM	10 to 100 nM	100 to 1000 nM	100 to 1000 nM	1000 to 10000 nM
C=CC(=O)N1CC[C@H](C(=O)N(C)[C@H](C(=O)N[C@H]2Cc3cccc(c3)-c3ccc4c(c3)c(c(-c3cnccc3[C@H](C)OC)n4CC)CC(C)(C)COC(=O)[C@@H]3CCCN(N3)C2=O)C(C)C)C1 (single isomer, unassigned) [Example A115]	1000 to 10000 nM	< 5000 nM	1000 to 10000 nM	100 to 1000 nM	10 to 100 nM and 100 to 1000 nM	1000 to 10000 nM	> 10000 nM
C=CC(=O)N1CC[C@H](C(=O)N(C)[C@H](C(=O)N[C@H]2Cc3cc(O)cc(c3)-c3ccc4c(c3)c(c(-c3cc(N5CC(OC)C5)ccn3)n4CC)CC(C)(C)COC(=O)[C@@H]3CCCN(N3)C2=O)C(C)C)C1 [Example A104]	1000 to 10000 nM	< 5000 nM	1000 to 10000 nM	100 to 1000 nM	10 to 100 nM	1000 to 10000 nM	1000 to 10000 nM
C=CC(=O)N1CC[C@H](C(=O)N(C)[C@H](C(=O)N[C@H]2Cc3cc(O)cc(c3)-c3ccc4c(c3)c(c(-c3cc(C#N)cnc3COC)n4CC)CC(C)(C)COC(=O)[C@@H]3CCCN(N3)C2=O)C(C)C)C1 [Example A105]	100 to 1000 nM	< 5000 nM	100 to 1000 nM	10 to 100 nM	10 to 100 nM	100 to 1000 nM	100 to 1000 nM
C=CC(=O)N1CC[C@H](C(=O)N(C)[C@H](C(=O)N[C@H]2Cc3cc(O)cc(c3)-c3ccc4c(c3)c(c(-c3cn(C)cn3)n4CC)CC(C)(C)COC(=O)[C@@H]3CCCN(N3)C2=O)C(C)C)C1 [Example A113]	1000 to 10000 nM	< 5000 nM	> 10000 nM	1000 to 10000 nM	100 to 1000 nM	> 10000 nM	> 10000 nM
C=CS(=O)(=O)N1CC[C@H](C(=O)N(C)[C@H](C(=O)N[C@H]2Cc3cc(O)cc(c3)-c3ccc4c(c3)c(c(-c3cncnc3)n4CC)CC(C)(C)COC(=O)[C@@H]3CCCN(N3)C2=O)C(C)C)C1 [Example A172]	1000 to 10000 nM	< 5000 nM	1000 to 10000 nM	100 to 1000 nM	10 to 100 nM	10 to 100 nM	> 10000 nM
CCn1c(-c2cccnc2[C@H](C)OC)c2c3cc(ccc31)-c1cccc(c1)C[C@H](NC(=O)[C@H](C(C)C)N1CC[C@@]3(CCN(C(=O)C#C[C@@H]4COCCN4C4COC4)C3)C1=O)C(=O)N1CCC[C@H](N1)C(=O)OCC(C)(C)C2 [Example A566]	1000 to 10000 nM	< 5000 nM	1000 to 10000 nM	100 to 1000 nM	10 to 100 nM	100 to 1000 nM	1000 to 10000 nM
C=CC(=O)N1CCC2(C1)CN(C(=O)N(C)[C@H](C(=O)N[C@H]1Cc3nc(cs3)-c3ccc4c(c3)c(c(-c3cccnc3[C@H](C)OC)n4CC(F)(F)F)CC(C)(C)COC(=O)[C@@H]3CCCN(N3)C1=O)C(C)C)C2 [Example A603]	100 to 1000 nM	< 5000 nM	10 to 100 nM	10 to 100 nM	10 to 100 nM	10 to 100 nM	100 to 1000 nM
CCn1c(-c2cccnc2[C@H](C)OC)c2c3cc(ccc31)-c1cccc(c1)C[C@H](NC(=O)[C@H](C(C)C)N(C)C(=O)N1CCC13CN(C(=O)C#CC(C)(C)N(C)C)C3)C(=O)N1CCC[C@H](N1)C(=O)OCC(C)(C)C2 [Example A672]	100 to 1000 nM	< 5000 nM	100 to 1000 nM	10 to 100 nM	10 to 100 nM	100 to 1000 nM	100 to 1000 nM
C=CC(=O)N(C)[C@H]1CC1N(C)C(=O)N(C)[C@H](C(=O)N[C@H]1Cc2nc(cs2)-c2ccc3c(c2)c(c(-c2cccnc2[C@H](C)OC)n3CC)CC(C)(C)COC(=O)[C@@H]2CCCN(N2)C1=O)C(C)C (some centres unmarked) [Example A738]	1000 to 10000 nM	< 5000 nM	100 to 1000 nM	100 to 1000 nM	100 to 1000 nM	100 to 1000 nM	1000 to 10000 nM
